From US6610699B2, “Use of L-carnitine and its alkanoyl derivatives in the preparation of medicaments with anticancer activity” (Sigma-Tau Industrie Farmaceutiche Riunite S.p.A., priority 1998, dated 2003)

Tested on: M109 murine lung cancer
Test: Growth of M109 murine lung cancer in BALB/c mice
Format: in vivo, mouse
Settings: for Tumour size, Day 8 / Tumour size, Day 11 / Tumour size, Day 13 / Tumour size, Day 15 / Tumour size, Day 20: taxol 30 mg/kg i.p., ALC 100 mg/kg os; for Tumour size, Day 8: day 8 post-inoculation; for Tumour size, Day 11: day 11 post-inoculation; for Tumour size, Day 13: day 13 post-inoculation; for Tumour size, Day 15: day 15 post-inoculation; for Tumour size, Day 20: day 20 post-inoculation
Description: Each ampoule of ALC is dissolved in 4 ml of the solvent provided (solution O). To be precise, 1.6 ml of solution O are brought to 40 ml with sterile buffer solution (PBS, Sigma P-4417) and then administered orally (100 mg/kg/20 ml).
At the time of use, the 12 mg/ml solution is diluted 1:4 with saline in phosphate buffer (PBS) (SIGMA,) and injected i.p. (30 mg/kg/ 10 ml).
Animals: 60 female Balb/c mice weighing 18 g (Harlan).
M109 tumour cells isolated from solid tumour.
The procedure described by Kedar E., B. Ikejiri, G. D. Bannard and R. B. Herberman (Eur. J. Cancer Clin. Oncol. 18; 991: 1982) is adopted with modifications. One Balb/c mouse (donor) was sacrificed by cervical dislocation, and after washing its back with denatured alcohol, the dorsal skin was cut longitudinally into two flaps which were detached to remove the tumour mass. The latter was placed on sterile gauze, where it was freed of connective tissue adhesions and of the necrotic and haemorrhagic parts. The study tissue was placed in a plate containing PBS with Ca^++ and Mg^++ (Gibco) at pH 7.2 and cold, broken down into pieces measuring 2-3 mm and re-suspended in a solution (15 ml solution/g tumour) of PBS with Ca^++ and Mg^++, pH 7.2m containing 2 mg/ml trypsin (type III. 10000 U/mg protein, Sigma-Aldrich), 2 mg/ml collagenase (type I-S 180 U/mg solid, Sigma), 0.2 mg/ml DNAse (type I 1548 U/mg protein. Sigma) and 25 μg/ml gentamicin (Sigma) and incubated at 37° C. for 15 minutes under constant stirring. The cell suspension was then homogenised with the aid of a potter (B. Braun) for 2 minutes, incubated at 37° C. for 10 minutes and aspirated gently a number of times with a syringe with a No. 21 sterile needle. After addition of 30 ml of RPMI-1640 (Eurobio) containing 10% FBS (Eurobio) maintained at 4° C. the cell suspension was filtered on sterile gauze and then centrifuged at 700 g for 10 minutes. The cell pellet was re-suspended gently in RPMI-1640 containing 10% FBS and 0.2 mg/ml DNAse (Sigma) and then centrifuged at 700 g for 10 minutes. The pellet was consecutively subjected to two washings with RPMI-1640; at the end of the last washing, the pellet was re-suspended gently in RPMI-1640 so as to perform the count to establish the cell concentration.
Inoculation conditions: 60 unanaesthetised Balb/c mice weighing approximately 18 g (Harlan) received i.m. injections of 3×10^5 M109 lung cancer cells in 0.1 ml of RPMI-1640 (Sigma) in the right rear paw.
Treatment schedule: for the purposes of evaluating tumour size in the experimental study groups, each consisting of 15 Balb/c mice, 3×10^5 M109 lung cancer cells were inoculated, and the study molecules were administered at the scheduled times. […] The vehicle diluted 1:4 with PBS from the mother solution was administered i.p. on days 8, 10, 12 and 14.
The tumour mass is calculated on the basis of the measurements of the two dimensions (length and width), expressed in mm. according to the following formula: [formula]
If we consider conventionally a tumour density equal to 1, the result is that the tumour volume expressed in mm^3 is equal to the weight of the tumour expressed in mg.

Structure (SMILES)	effect on the anticancer action of taxol, inhibition of the tumour mass (in words) (ALC 100 mg/kg os with taxol 30 mg/kg i.p.)	Tumour size, Day 8 [mm^3]	Tumour size, Day 11	Tumour size, Day 13	Tumour size, Day 15	Tumour size, Day 20
CC(=O)O[C@H](CC(=O)[O-])C[N+](C)(C)C [ALC, acetyl L-carnitine]	does not interfere with the anticancer action of taxol					
CC(=O)O[C@H]1C(=O)[C@@]2(C)[C@H]([C@H](OC(=O)c3ccccc3)[C@]3(O)C[C@H](OC(=O)[C@H](O)[C@@H](NC(=O)c4ccccc4)c4ccccc4)C(C)=C1C3(C)C)[C@]1(OC(C)=O)CO[C@@H]1C[C@@H]2O [Taxol, paclitaxel, reference compound]		539	662 ± mm^3	622 ± mm^3	857 ± mm^3	1085 ± mm^3
CC(=O)O[C@H](CC(=O)[O-])C[N+](C)(C)C [Vehicle + ALC, acetyl L-carnitine]		567	959 mm^3	1289 mm^3	1779 ± mm^3	2251 mm^3
